Test results: PMC4812296, “A chemical family-based strategy for uncovering hidden bioactive molecules and multicomponent interactions in herbal medicines” (Scientific Reports, 2016)

Target: T1, thrombin (Bos taurus, UniProt P00735)
T1 construct: gene F2
Assay: chromogenic S-2238 hydrolysis assay, bovine plasma thrombin
Assay type: biochemical

Structure (SMILES) | IC50 [µM]
Cc1cccc2c3c(ccc12)C1=C(C(=O)C3=O)[C@@H](C)CO1 (single isomer, unassigned) [peak 15, Dihydrotanshinone I] | 92 ± 5
C[C@H]1COC2=C1C(=O)C(=O)c1c2ccc2c1CCCC2(C)C (single isomer, unassigned) [peak 16, Cryptotanshinone] | 102 ± 4
Cc1coc2c1C(=O)C(=O)c1c-2ccc2c(C)cccc12 [peak 17, Tanshinone I] | 333 ± 28
Cc1coc2c1C(=O)C(=O)c1c-2ccc2c1CCCC2(C)C [peak 18, Tanshinone IIA] | 39 ± 1
